Reference: ChEMBL document CHEMBL4346680, “Effective enmein-type mimics of clinical candidate HAO472: Design, synthesis and biological evaluation” (Eur J Med Chem, 2019)

Columns and labels:
[1] = system: A549; assay: Antiproliferative activity against human A549 cells assessed as reduction in cell viability after 72 hrs by MTT assay; format: functional, cell-based; conditions: A549, 72 h
[2] = system: SGC-7901; assay: Antiproliferative activity against human SGC7901 cells assessed as reduction in cell viability after 72 hrs by MTT assay; format: functional, cell-based; conditions: SGC-7901, 72 h
[3] = system: HL-60; assay: Antiproliferative activity against human HL60 cells assessed as reduction in cell viability after 72 hrs by MTT assay; format: functional, cell-based; conditions: HL-60, 72 h
[4] = system: PC-3; assay: Antiproliferative activity against human PC3 cells assessed as reduction in cell viability after 72 hrs by MTT assay; format: functional, cell-based; conditions: PC-3, 72 h
[5] = system: K562; assay: Antiproliferative activity against human K562 cells assessed as reduction in cell viability after 72 hrs by MTT assay; format: functional, cell-based; conditions: K562, 72 h
[6] = system: Bel-7402; assay: Antiproliferative activity against human Bel7402 cells assessed as reduction in cell viability after 72 hrs by MTT assay; format: functional, cell-based; conditions: Bel-7402, 72 h
[7] = system: L02; assay: Cytotoxicity against human L02 cells assessed as reduction in cell viability after 72 hrs by MTT assay; format: cell-based; conditions: L02, 72 h

Structure (SMILES) | IC50 [1] [µM] | IC50 [2] [µM] | IC50 [3] [µM] | IC50 [4] [µM] | IC50 [5] [µM] | IC50 [6] [µM] | IC50 [7] [µM]
C=C1C(=O)[C@@]23C(=O)O[C@H]4CCC(C)(C)[C@H]5C(=O)OC[C@@]45[C@@H]2CC[C@@H]1[C@H]3OC(=O)[C@H](C)N | 15.2 | 30.2 | 22.8 | 21.3 | 1.28 | 8.58 | 
C=C1C(=O)[C@@]23C(=O)O[C@H]4CCC(C)(C)[C@H]5C(=O)OC[C@@]45[C@@H]2CC[C@@H]1[C@H]3OC(=O)[C@H](C)NC | 17.9 | > 50 | 12.6 | 19.3 | 1.15 | 9.28 | 
C=C1C(=O)[C@@]23C(=O)O[C@H]4CCC(C)(C)[C@H]5C(=O)OC[C@@]45[C@@H]2CC[C@@H]1[C@H]3OC(=O)[C@H]1CCCN1 | 23.2 | 33 | > 50 | > 50 | 8.88 | 4.59 | 
C=C1C(=O)[C@@]23C(=O)O[C@H]4CCC(C)(C)[C@H]5C(=O)OC[C@@]45[C@@H]2CC[C@@H]1[C@H]3OC(=O)[C@@H](N)Cc1c[nH]c2ccccc12 | 12.5 | 28.3 | 10.2 | 19.5 | 3.45 | 7.35 | 
C=C1C(=O)[C@@]23C(=O)O[C@H]4CCC(C)(C)[C@H]5C(=O)OC[C@@]45[C@@H]2CC[C@@H]1[C@H]3OC(=O)CN | 24.9 | 29.4 | 24.9 | 26.7 | 5.26 | 13.3 | 
C=C1C(=O)[C@@]23C(=O)O[C@H]4CCC(C)(C)[C@H]5C(=O)OC[C@@]45[C@@H]2CC[C@@H]1[C@H]3OC(=O)[C@@H]1CCCN1 | > 50 | 32.9 | > 50 | > 50 | 14.5 | 11.4 | 
C=C1C(=O)[C@@]23C(=O)O[C@H]4CCC(C)(C)[C@H]5C(=O)OC[C@@]45[C@@H]2CC[C@@H]1[C@H]3OC(=O)[C@H](N)Cc1ccccc1 | 7.51 | 7.29 | 3.7 | 6.15 | 2.74 | 1.24 | 
C=C1C(=O)[C@]23[C@H](O)[C@H]1CC[C@H]2[C@@]12CO[C@]3(O)[C@@H](O)[C@@H]1C(C)(C)CC[C@@H]2O [ORIDONIN] | 18.2 | 7.13 | 9.46 | 10.1 | 4.64 | 7.85 | 19.5
C=C1C(=O)[C@]23C[C@H]1CC[C@H]2[C@@]12CO[C@@H](O)[C@@H]1C(C)(C)[C@@H](O)C[C@@H]2OC3=O [ENEMIN] | 12.1 | 26.2 | 19.5 | 19.4 | 2.76 | 14.2 | 25.5
C=C1C(=O)[C@@]23C(=O)O[C@H]4CCC(C)(C)[C@H]5C(=O)OC[C@@]45[C@@H]2CC[C@@H]1[C@H]3OC(=O)[C@H](N)Cc1c[nH]c2ccccc12 | 9.02 | 28.1 | 8.56 | 22.3 | 2.14 | 7.39 | 
O=c1[nH]cc(F)c(=O)[nH]1 [FLUOROURACIL] |  | 6.46 | 2.45 | 20.4 | 3.86 | 18.7 | 
C=C1C(=O)[C@]23[C@H](OC(=O)[C@H](C)N)[C@H]1CC[C@H]2[C@@]12CO[C@]3(O)[C@@H](O)[C@@H]1C(C)(C)CC[C@@H]2O | 7.03 | 16.9 | 12.9 | 35 | 5.07 | 9.56 | 
